Data published in the supplement of paper PMC10307832.

Columns and labels:
[1] = compound: Cc1ccc2nc(NCCN)c3ncc(C)n3c2c1 + NC(=O)Nc1cc(-c2cccc(F)c2)sc1C(=O)N[C@H]1CCCNC1 [AZD7762] (partner 0.2 µM); assay: relative viability (nuclei count vs DMSO), 5 days (fraction); higher = more cells survive
How it was run: (§1)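 Lung cancer cell lines were seeded in 1536-well plates and dosed by pin tool the next day, with either a single drug or a fixed anchor-drug dose combined with five library-drug doses (not always all listed) spaced in √10 steps. Five days later, one step fixed the cells and stained their nuclei (final 0.05% Triton X-100, 1% formaldehyde, 1 ug/ml Hoechst), and nuclei were counted on 4× images. Relative viability is the nuclei count in treated wells divided by the count in vehicle wells, and each value is the median of duplicate plates.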

[2] = compound: Cc1ccc2nc(NCCN)c3ncc(C)n3c2c1 + CC(=O)Nc1cccc(-n2c(=O)n(C3CC3)c(=O)c3c(Nc4ccc(I)cc4F)n(C)c(=O)c(C)c32)c1 [Trametinib] (partner 0.02 µM); assay: as above
How it was run: as §1

Row | Cell Line | relative viability ([1]; first compound 0.04 µM) | relative viability ([1]; first compound 0.1265 µM) | relative viability ([1]; first compound 0.4 µM) | relative viability ([1]; first compound 1.265 µM) | relative viability ([1]; first compound 4 µM) | relative viability ([2]; first compound 0.04 µM) | relative viability ([2]; first compound 0.1265 µM) | relative viability ([2]; first compound 0.4 µM) | relative viability ([2]; first compound 1.265 µM) | relative viability ([2]; first compound 4 µM)
1 | 201T | 0.639 | 0.569 | 0.66 | 0.598 | 0.618 | 0.72 | 0.696 | 0.713 | 0.738 | 0.684
2 | A-427 | 0.816 | 0.748 | 0.748 | 0.721 | 0.723 | 0.725 | 0.731 | 0.705 | 0.695 | 0.775
3 | ABC-1 | 0.765 | 0.999 | 0.798 | 0.741 | 0.648 |  |  |  |  | 
4 | BEN | 0.719 | 0.738 | 0.538 | 0.68 | 0.783 | 0.97 | 0.929 | 1.07 | 0.958 | 1.05
5 | CAL-12T | 0.657 | 0.649 | 0.557 | 0.576 | 0.481 | 0.352 | 0.323 | 0.361 | 0.357 | 0.271
6 | COR-L23 |  |  |  |  |  | 0.581 | 0.564 | 0.624 | 0.648 | 0.506
7 | COR-L 105 |  |  |  |  |  | 0.423 | 0.506 | 0.478 | 0.407 | 0.414
8 | ChaGo-K-1 | 0.946 | 0.901 | 0.874 | 0.808 | 0.921 | 0.884 | 0.924 | 0.904 | 0.849 | 0.77
9 | EKVX | 0.723 | 0.704 | 0.693 | 0.682 | 0.525 | 0.383 | 0.365 | 0.269 | 0.261 | 0.291
10 | EMC-BAC-2 | 1.2 | 1.11 | 1.04 | 1.06 | 1.02 | 0.927 | 0.927 | 0.873 | 0.954 | 0.7
11 | EPLC-272H | 0.228 | 0.404 | 0.214 | 0.177 | 0.166 | 0.296 | 0.334 | 0.282 | 0.253 | 0.245
12 | H3255 | 0.923 | 0.963 | 0.829 | 0.76 | 0.746 | 0.562 | 0.554 | 0.564 | 0.523 | 0.575
13 | HARA | 0.401 | 0.33 | 0.256 | 0.274 | 0.337 | 0.637 | 0.648 | 0.41 | 0.723 | 0.761
14 | HCC-15 | 1.23 | 1.27 | 1.19 | 1.17 | 1.18 | 0.425 | 0.373 | 0.364 | 0.356 | 0.381
15 | HCC-44 | 0.988 | 1.05 | 0.933 | 0.992 | 1.02 | 1.11 | 0.971 | 1.03 | 1.1 | 1.01
16 | HCC-78 | 0.828 | 0.72 | 0.616 | 0.752 | 0.586 | 0.703 | 0.672 | 0.699 | 0.527 | 0.536
17 | HCC-366 | 0.272 | 0.278 | 0.318 | 0.228 | 0.239 | 0.385 | 0.395 | 0.369 | 0.336 | 0.284
18 | HCC-827 | 0.222 | 0.265 | 0.224 | 0.207 | 0.18 | 0.557 | 0.51 | 0.539 | 0.626 | 0.555

Row | Cell Line | relative viability ([1]; first compound 0.04 µM) | relative viability ([1]; first compound 0.1265 µM) | relative viability ([1]; first compound 0.4 µM) | relative viability ([1]; first compound 1.265 µM) | relative viability ([1]; first compound 4 µM) | relative viability ([2]; first compound 0.04 µM) | relative viability ([2]; first compound 0.1265 µM) | relative viability ([2]; first compound 0.4 µM) | relative viability ([2]; first compound 1.265 µM) | relative viability ([2]; first compound 4 µM)
19 | HOP-62 | 0.849 | 0.638 | 0.528 | 0.543 | 0.595 | 0.41 | 0.374 | 0.376 | 0.387 | 0.328
20 | LC-2-ad | 0.86 | 0.806 | 0.822 | 0.86 | 0.795 | 0.927 | 0.963 | 0.881 | 0.965 | 0.86
21 | LCLC-97TM1 | 0.409 | 0.321 | 0.216 | 0.269 | 0.225 | 0.194 | 0.212 | 0.196 | 0.189 | 0.186
22 | LCLC-103H | 0.877 | 0.821 | 0.654 | 0.772 | 0.752 | 0.727 | 0.677 | 0.65 | 0.66 | 0.67
23 | LK-2 | 0.393 | 0.612 |  |  | 0.347 | 0.921 | 0.576 | 0.682 | 0.617 | 0.672
24 | LOU-NH91 | 0.869 | 0.789 | 0.753 | 0.702 | 0.733 | 0.819 | 0.792 | 0.794 | 0.787 | 0.775
25 | LU99A | 0.485 | 0.425 | 0.314 | 0.286 | 0.354 | 0.501 | 0.604 | 0.541 | 0.618 | 0.577
26 | LXF-289 | 1.19 | 1.1 | 1.08 | 1.06 | 1.12 | 0.669 | 0.629 | 0.696 | 0.645 | 0.663
27 | NCI-H23 | 0.282 | 0.297 | 0.261 | 0.228 | 0.22 | 0.444 | 0.391 | 0.384 | 0.426 | 0.308
28 | NCI-H322M | 0.446 | 0.703 | 0.638 | 0.552 | 0.605 | 0.522 | 0.538 | 0.495 | 0.502 | 0.535
29 | NCI-H358 | 0.51 | 0.573 | 0.413 | 0.515 | 0.401 | 0.133 | 0.153 | 0.13 | 0.137 | 0.129
30 | NCI-H441 | 1.35 | 1.09 | 1.05 | 1.25 | 1.19 | 0.487 | 0.47 | 0.342 | 0.346 | 0.512
31 | NCI-H460 | 0.614 | 0.636 | 0.631 | 0.7 | 0.541 | 0.165 | 0.146 | 0.171 | 0.197 | 0.0969
32 | NCI-H520 |  |  |  |  |  | 0.75 | 0.658 | 0.753 | 0.677 | 0.621
33 | NCI-H522 | 0.754 | 0.778 | 0.634 | 0.843 | 0.765 | 0.641 | 0.753 | 0.791 | 0.719 | 0.684
34 | NCI-H596 | 1.07 | 1.08 | 1.04 | 0.915 | 1.11 | 0.834 | 0.732 | 0.806 | 0.74 | 0.763
35 | NCI-H647 | 0.44 | 0.517 | 0.38 | 0.574 | 0.148 | 0.542 | 0.378 | 0.437 | 0.419 | 0.341
